# Laboratory results taken from patent publication US12577234B2, “Antagonists of the muscarinic acetylcholine receptor M4” (Vanderbilt University, priority 2017, dated 2026).
# Biological target: T1, human mAChR M4 (Homo sapiens, UniProt P08173)
# T1 construct: expressed in transfected cells; host or cells: CHO-K1 (ATCC), stably co-expressing chimeric G protein Gqi5
# T1 sequence (P08173 1-479): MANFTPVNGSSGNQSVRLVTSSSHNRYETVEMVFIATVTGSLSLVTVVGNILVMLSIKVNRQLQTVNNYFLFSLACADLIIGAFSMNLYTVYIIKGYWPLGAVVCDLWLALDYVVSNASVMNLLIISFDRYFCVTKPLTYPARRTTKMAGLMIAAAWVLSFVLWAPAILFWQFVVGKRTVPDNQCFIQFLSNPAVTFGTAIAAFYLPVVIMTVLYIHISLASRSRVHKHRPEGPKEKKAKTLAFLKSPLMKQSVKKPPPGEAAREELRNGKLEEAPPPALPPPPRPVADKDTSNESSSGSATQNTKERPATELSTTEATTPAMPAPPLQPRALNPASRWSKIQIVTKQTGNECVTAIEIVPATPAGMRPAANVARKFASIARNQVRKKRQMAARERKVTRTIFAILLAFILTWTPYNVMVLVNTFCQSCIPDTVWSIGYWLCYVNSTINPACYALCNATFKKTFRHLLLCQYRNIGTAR
# Test: mAChR M4 cell-based functional assay (calcium mobilization, EC80 acetylcholine), human M4
# Conditions: for IC50: M4/Gqi5/CHO-K1 cells, decrease of EC80 acetylcholine response; for Emin: human M4, % ACh maximum at 30 μM
# Experimental: Human or rat M4 cDNA, along with the chimeric G protein Gqi5, were transfected into Chinese hamster ovary (CHO-K1) cells purchased from the American Type Culture Collection using Lipofectamine2000. M4/Gqi5/CHO cells were grown in Ham's F-12 medium containing 10% heat-inactivated fetal bovine serum (FBS), 20 mM HEPES, 500 μg/mL G418 sulfate, and 200 μg/mL Hygromycin B.
# For high throughput measurement of agonist-evoked increases in intracellular calcium, CHO-K1 cells stably expressing muscarinic receptors were plated in growth medium lacking G418 and hygromycin at 15,000 cells/20 μL/well in Greiner 384-well black-walled, tissue culture (TC)-treated, clear-bottom plates (VWR). Cells were incubated overnight at 37° C. and 5% CO2. […] Compound master plates were formatted in a 10 point concentration-response curve (CRC) format (1:3 dilutions) in 100% DMSO with a starting concentration of 10 or 1 mM using a BRAVO liquid handler (Agilent). Test compound CRCs were then transferred to daughter plates (240 nL) using the Echo acoustic plate reformatter (Labcyte, Sunnyvale, CA) and then diluted into assay buffer (40 μL) to a 2× stock using a Thermo Fisher Combi (Thermo Fisher Scientific, Waltham, MA).
# Calcium flux was measured using the Functional Drug Screening System (FDSS) 6000 or 7000 (Hamamatsu Corporation, Tokyo, Japan) as an increase in the fluorescent static ratio. Compounds were applied to cells (20 μL, 2×) using the automated system of the FDSS at 2 seconds into the protocol and the data were collected at 1 Hz. […] Agonist activity was analyzed as a concentration-dependent increase in calcium mobilization upon compound addition. Positive allosteric modulator activity was analyzed as a concentration-dependent increase in the EC20 acetylcholine response. Antagonist activity was analyzed as a concentration-dependent decrease in the EC80 acetylcholine response; for the purposes of the tables herein, an IC50 (inhibitory concentration 50) was calculated as a concentration-dependent decrease of the response elicited by an EC80 concentration of acetylcholine. Concentration-response curves were generated using a four-parameter logistical equation in XLFit curve fitting software (IDBS, Bridgewater, NJ) for Excel (Microsoft, Redmond, WA) or Prism (GraphPad Software, Inc., San Diego, CA) or the Dotmatics software platform (Dotmatics, Bishop's Stortford, UK).
Compound,Human M4 Emin (Table 10) [%],IC50 (Table 10) [nM],IC50 (Table 9) [nM],Emin (Table 9) [%]
"Cn1cc(-c2ccc(N[C@H]3C[C@@H]4CN(CC5CCOCC5)C[C@@H]4C3)nn2)cn1 [Compound 208, (3aR,5s,6aS)-N-[6-(1-methylpyrazol-4-yl)pyridazin-3-yl]-2-(tetrahydropyran-4-ylmethyl)-3,3a,4,5,6,6a-hexahydro-1H-cyclopenta[c]pyrrol-5-amine]",25,4.14,–,–
"Fc1ccc(Cl)c(-c2ccc(NC[C@H]3C[C@@H]4CN(CC5CC6C=CC5C6)C[C@@H]4C3)nn2)c1 (stereo partly drawn) [Compound 69, N-[[(3aR,5s,6aS)-2-(5-bicyclo[2.2.1]hept-2-enylmethyl)-3,3a,4,5,6,6a-hexahydro-1H-cyclopenta[c]pyrrol-5-yl]methyl]-6-(2-chloro-5-fluoro-phenyl)pyridazin-3-amine]",–,–,35.9,2.74
"COc1ccc(CN2C[C@H]3C[C@H](Nc4ccc(-c5cc(F)ccc5Cl)nn4)C[C@H]3C2)cc1 [Compound 168, (3aR,5s,6aS)-N-[6-(2-chloro-5-fluoro-phenyl)pyridazin-3-yl]-2-[(4-methoxyphenyl)methyl]-3,3a,4,5,6,6a-hexahydro-1H-cyclopenta[c]pyrrol-5-amine]",2,11.5,–,–
"Fc1ccc(Cl)c(-c2ccc(N[C@H]3C[C@@H]4CN(Cc5ccccn5)C[C@@H]4C3)nn2)c1 [Compound 160, (3aR,5s,6aS)-N-[6-(2-chloro-5-fluoro-phenyl)pyridazin-3-yl]-2-(2-pyridylmethyl)-3,3a,4,5,6,6a-hexahydro-1H-cyclopenta[c]pyrrol-5-amine]",3,4.03,–,–
"Fc1ccc(Cl)c(-c2ccc(N[C@H]3C[C@@H]4CN(CC5CCCCC5)C[C@@H]4C3)nn2)c1 [Compound 31, (3aR,5s,6aS)-N-[6-(2-chloro-5-fluoro-phenyl)pyridazin-3-yl]-2-(cyclohexylmethyl)-3,3a,4,5,6,6a-hexahydro-1H-cyclopenta[c]pyrrol-5-amine]",–,–,8.6,4.96
"Cc1nn(C)cc1-c1ccc(O[C@H]2C[C@@H]3CN(CCC(C)(C)C)C[C@@H]3C2)nn1 [Compound 134, (3aR,5s,6aS)-2-(3,3-dimethylbutyl)-5-[6-(1,3-dimethylpyrazol-4-yl)pyridazin-3-yl]oxy-3,3a,4,5,6,6a-hexahydro-1H-cyclopenta[c]pyrrole]",4,17.3,–,–
"Fc1ccc(Cl)c(-c2ccc(N[C@H]3C[C@@H]4CN(Cc5ccccc5F)C[C@@H]4C3)nn2)c1 [Compound 36, (3aR,5s,6aS)-N-[6-(2-chloro-5-fluoro-phenyl)pyridazin-3-yl]-2-[(2-fluorophenyl)methyl]-3,3a,4,5,6,6a-hexahydro-1H-cyclopenta[c]pyrrol-5-amine]",–,–,14.6,6.22
"c1cc(N2CCCCC2)nnc1N[C@H]1C[C@@H]2CN(CC3CCOCC3)C[C@@H]2C1 [Compound 193, (3aR,5s,6aS)-N-[6-(1-piperidyl)pyridazin-3-yl]-2-(tetrahydropyran-4-ylmethyl)-3,3a,4,5,6,6a-hexahydro-1H-cyclopenta[c]pyrrol-5-amine]",3,0.8,–,–
"Cc1cnn(C)c1-c1ccc(N[C@H]2C[C@@H]3CN(Cc4ccccc4F)C[C@@H]3C2)nn1 [Compound 25, (3aR,5s,6aS)-N-[6-(2,4-dimethylpyrazol-3-yl)pyridazin-3-yl]-2-[(2-fluorophenyl)methyl]-3,3a,4,5,6,6a-hexahydro-1H-cyclopenta[c]pyrrol-5-amine]",–,–,193,4.92
"Fc1ccc(F)c(-c2ccc(N[C@H]3C[C@@H]4CN(CC5CCOCC5)C[C@@H]4C3)nn2)c1 [Compound 215, (3aR,5s,6aS)-N-[6-(2,5-difluorophenyl)pyridazin-3-yl]-2-(tetrahydropyran-4-ylmethyl)-3,3a,4,5,6,6a-hexahydro-1H-cyclopenta[c]pyrrol-5-amine]",6,1.4,–,–
"Cc1nn(C)cc1-c1ccc(N[C@H]2C[C@@H]3CN(CC45CC6CC(CC(C6)C4)C5)C[C@@H]3C2)nn1 [Compound 37, (3aR,5s,6aS)-2-(1-adamantylmethyl)-N-[6-(1,3-dimethylpyrazol-4-yl)pyridazin-3-yl]-3,3a,4,5,6,6a-hexahydro-1H-cyclopenta[c]pyrrol-5-amine]",–,–,25.8,5.65
"Cc1nn(C)cc1-c1ccc(OCC2C[C@@H]3CN(Cc4ccccc4)C[C@@H]3C2)nn1 (stereo partly drawn) [Compound 100, (3aR,6aS)-2-benzyl-5-[[6-(1,3-dimethylpyrazol-4-yl)pyridazin-3-yl]oxymethyl]-3,3a,4,5,6,6a-hexahydro-1H-cyclopenta[c]pyrrole]",–,–,2380,5.92
"F[C@@H]1CCN(c2ccc(N[C@H]3C[C@@H]4CN(CC5CCOCC5)C[C@@H]4C3)nn2)C1 [Compound 194, (3aR,5s,6aS)-N-[6-[(3S)-3-fluoropyrrolidin-1-yl]pyridazin-3-yl]-2-(tetrahydropyran-4-ylmethyl)-3,3a,4,5,6,6a-hexahydro-1H-cyclopenta[c]pyrrol-5-amine]",5,12.5,–,–
"Cc1cnn(C)c1-c1ccc(NCCC2C[C@@H]3CN(CC4CC5C=CC4C5)C[C@@H]3C2)nn1 (stereo partly drawn) [Compound 123, N-[2-[(3aR,6aS)-2-(5-bicyclo[2.2.1]hept-2-enylmethyl)-3,3a,4,5,6,6a-hexahydro-1H-cyclopenta[c]pyrrol-5-yl]ethyl]-6-(2,4-dimethylpyrazol-3-yl)pyridazin-3-amine]",–,–,6.2,2.16
"Cc1nn(C)cc1-c1ccc(N[C@H]2C[C@@H]3CN(CCC(C)(C)C)C[C@@H]3C2)nn1 [Compound 3, (3aR,5s,6aS)-2-(3,3-dimethylbutyl)-N-[6-(1,3-dimethylpyrazol-4-yl)pyridazin-3-yl]-3,3a,4,5,6,6a-hexahydro-1H-cyclopenta[c]pyrrol-5-amine]",–,–,0.6,4.99
"Cc1nn(C)cc1-c1ccc(N[C@H]2C[C@@H]3CN(CC4CC5C=CC4C5)C[C@@H]3C2)nn1 (stereo partly drawn) [Compound 2, (3aR,5s,6aS)-2-(5-bicyclo[2.2.1]hept-2-enylmethyl)-N-[6-(1,3-dimethylpyrazol-4-yl)pyridazin-3-yl]-3,3a,4,5,6,6a-hexahydro-1H-cyclopenta[c]pyrrol-5-amine]",–,–,0.3,3.87
"CCCC(C)CN1C[C@H]2C[C@H](Nc3ccc(-c4cc(F)ccc4Cl)nn3)C[C@H]2C1 (stereo partly drawn) [Compound 30, (3aR,5s,6aS)-N-[6-(2-chloro-5-fluoro-phenyl)pyridazin-3-yl]-2-(2-methylpentyl)-3,3a,4,5,6,6a-hexahydro-1H-cyclopenta[c]pyrrol-5-amine]",–,–,10,2.88
"CCC(C)CN1C[C@H]2C[C@H](Nc3ccc(-c4c(C)cnn4C)nn3)C[C@H]2C1 (stereo partly drawn) [Compound 18, (3aR,5s,6aS)-N-[6-(2,4-dimethylpyrazol-3-yl)pyridazin-3-yl]-2-(2-methylbutyl)-3,3a,4,5,6,6a-hexahydro-1H-cyclopenta[c]pyrrol-5-amine]",–,–,90.2,2.90
"CCCC(C)CN1C[C@H]2C[C@H](Nc3ccc(-c4c(C)cnn4C)nn3)C[C@H]2C1 (stereo partly drawn) [Compound 19, (3aR,5s,6aS)-N-[6-(2,4-dimethylpyrazol-3-yl)pyridazin-3-yl]-2-(2-methylpentyl)-3,3a,4,5,6,6a-hexahydro-1H-cyclopenta[c]pyrrol-5-amine]",–,–,10,3.11
